Assay results as given in patent US20130178391A1, “METHODS FOR PREDICTING TREATMENT RESPONSE BASED ON THE EXPRESSION PROFILES OF BIOMARKER GENES IN NOTCH MEDIATED CANCERS” (Rosetta Inpharmaceutics LLC, priority 2007, published 2013).

Key:
TALL1 = assay: Flow cytometry DNA content analysis (cell cycle arrest); type: cell-based, Human; conditions: GSI sensitive cell line TALL1, flow cytometry
Description: DNA content analysis was performed using Propidium Iodide/RNase buffer (BD Biosciences, Cat. No. 550825, San Jose, Calif.) or Draq5. Briefly, 1×10(6) cells were harvested and fixed with 70% ethanol for 20 minutes on ice, washed and then resupended in 500 uL of PI buffer for 15 min at room temperature followed by analysis on flow cytometer (FACSCalibur, BD Biosciences). Draq5 staining was performed by incubating 200,000 live cells with 10 uM Draq5 for 5 minutes followed by flow cytometric analysis (488 nm excitation).

CDKN2D, CDKN1B [1] = assay: Quantitative PCR of CDKN2D and CDKN1B in T-ALL cell lines; type: cell-based, Human; conditions: TALL1 cells, 48 hours
Description: T-ALL cell lines were treated with DMSO or MRK-003 (active GSI) for 48 hours and then harvested. RNA was isolated using the RNeasy Mini Kit (Qiagen, Cat#: 74106). cDNA was synthesized using High Capacity Archive Kit (Applied Biosystems, Cat #: 4368814). qPCR was performed on an ABI 7900 using AACT protocol using their inventoried Taqman Probes/Primers for human CDKN2D, CDKN1B and GAPDH (as internal control). Analysis was performed in SDS 2.2.2 software (Applied Biosystems).

CDKN2D, CDKN1B [2] = assay: Immunoblot of CDKN2D and CDKN1B; type: cell-based, Human; conditions: TALL1 cells
Description: Standard western blotting procedures were used. Antibodies used as follows; Rb-underphosphorylated, (BD Biosciences, Cat. No 554164, San Jose, Calif.) Rb-Total (Cat. No. 9309), CDKN1B (Cell Signaling Technologies, Cat. No. 2552, Danvers, Mass.), CDKN2D (Santa Cruz Biotechnologies, Cat No. sc-1063, Santa Cruz, Calif.), Beta-Actin (Abcam Inc., Cat. No. 8226, Cambridge, Mass.) Immunoblot of NOTCH intracellular domain (NICD) was previously determined (O'Neil, Grim et al. 2007)

human T-ALL cell lines = assay: Grouping of 16 T-ALL cell lines by GSI sensitivity (7-day ATP viability assay); type: cell-based
Description: (§1) Human T-ALL cell lines were purchased from ATCC (Manassas, Va.) or DSMZ (Braunschweig, Germany). Cell lines were maintained in RPMI supplemented with 10-15% FBS and 2 mmol/L glutamine. For IC50 analyses TALL cell lines were plated in 96 well plates at 5000 cells/well, except for Tall-1 cells which were plated at 10,000 cells/well. Cells were re-fed with compound and media on day 4. Viability assays were performed using Cell Titer Glo kit (Promega, Cat. No. G7572, Fitchburg, Wis.) 7 days after compound addition. For larger scale compound treatments, TALL cell lines were plated in T-150 flasks at 200,000 cells/mL and treated at 0.1 or 1.0 μM GSI (MRK-003) for 3 days or as indicated. GSI washout studies were performed using 10 μM GSI. T-150 cultures were also re-fed on day 4.
Previous studies have identified mutations in the heterodimerization domain or PEST domain of the NOTCH1 gene in T-ALL cell lines and patient samples resulting in increased NICD and presumably activation of the NOTCH signaling pathway (Weng, Ferrando et al. 2004; Zhu, Zhao et al. 2006). In a subset of human T-ALL cell lines with activating mutations in NOTCH1, treatment with GSIs leads to cell cycle arrest and apoptosis (Weng, Ferrando et al. 2004; Lewis, Leveridge et al. 2007). […] We determined IC50 values for 16 T-ALL cell lines using a 7-day viability assay which allowed grouping into four sensitivity groups (1) high, IC50<1 uM, (2) medium, IC50 3-4 uM, (3) low, IC50 6-7 uM, (4) none, IC50>10 uM and comparison to NOTCH1 mutuation and NICD protein Levels (Table1).
GSI IC50s, based on a 7-day ATP viability assay, are summarized for 16 T-ALL cell lines and grouped into high […], medium (3-4 uM), low (6-7 uM) or insensitive groupings (>10 uM). Also summarized is NOTCH1 mutation status, NICD levels and cell line group size for each sensitivity level previously described (O'Neil et al. 2007). NICD levels are reported qualitatively based on immunoblot signal, 0=none, 1=low, 2=medium, 3=high.

DND41 = assay: 7-day Cell Titer Glo viability assay; type: cell-based, Human; conditions: DND41 cells, 7-day viability assay
Description: as §1

SUPT-11 = assay: 7-day Cell Titer Glo viability assay; type: cell-based, Human; conditions: SUPT-11 cells, 7-day viability assay
Description: as §1

KARPAS-45 = assay: 7-day Cell Titer Glo viability assay; type: cell-based, Human; conditions: KARPAS-45 cells, 7-day viability assay
Description: as §1

MOLT-16 = assay: 7-day Cell Titer Glo viability assay; type: cell-based, Human; conditions: MOLT-16 cells, 7-day viability assay
Description: as §1

TALL-1 = assay: 7-day Cell Titer Glo viability assay; type: cell-based, Human; conditions: TALL-1 cells, 7-day viability assay
Description: as §1

KOPTK-1 = assay: 7-day Cell Titer Glo viability assay; type: cell-based, Human; conditions: KOPTK-1 cells, 7-day viability assay
Description: as §1

RPMI 8402 = assay: 7-day Cell Titer Glo viability assay; type: cell-based, Human; conditions: RPMI 8402 cells, 7-day viability assay
Description: as §1

HSB-2 = assay: 7-day Cell Titer Glo viability assay; type: cell-based, Human; conditions: HSB-2 cells, 7-day viability assay
Description: as §1

MOLT -4 = assay: 7-day Cell Titer Glo viability assay; type: cell-based, Human; conditions: MOLT -4 cells, 7-day viability assay
Description: as §1

BE-13 = assay: 7-day Cell Titer Glo viability assay; type: cell-based, Human; conditions: BE-13 cells, 7-day viability assay
Description: as §1

LOUCY = assay: 7-day Cell Titer Glo viability assay; type: cell-based, Human; conditions: LOUCY cells, 7-day viability assay
Description: as §1

CEM = assay: 7-day Cell Titer Glo viability assay; type: cell-based, Human; conditions: CEM cells, 7-day viability assay
Description: as §1

PF-382 = assay: 7-day Cell Titer Glo viability assay; type: cell-based, Human; conditions: PF-382 cells, 7-day viability assay
Description: as §1

HBP-ALL = assay: 7-day Cell Titer Glo viability assay; type: cell-based, Human; conditions: HBP-ALL cells, 7-day viability assay
Description: as §1

SKW-3 = assay: 7-day Cell Titer Glo viability assay; type: cell-based, Human; conditions: SKW-3 cells, 7-day viability assay
Description: as §1

JURKAT = assay: 7-day Cell Titer Glo viability assay; type: cell-based, Human; conditions: JURKAT cells, 7-day viability assay
Description: as §1

IC50 (KARPAS-45): 0.81 µM
IC50 (MOLT-16): > 10 µM
IC50 (MOLT -4): > 10 µM
IC50 (SKW-3): > 10 µM
IC50 (JURKAT): > 10 µM
Structure (SMILES): O=S1(=O)N[C@@]2(CN1CC(F)(F)F)[C@@H]1CC[C@H]2Cc2ccc(/C=C/CN3CCC(C(F)(F)F)CC3)cc2C1 [MRK-003]
cell cycle arrest (FIG. 3A) (TALL1): induced cell cycle arrest
increases in CDKN2D and CDKN1B by quantitative PCR (FIG. 3B) (CDKN2D, CDKN1B [1]): increases in the CDKi CDKN2D and CDKN1B
increases in CDKN2D and CDKN1B by immunoblot (FIG. 3C) (CDKN2D, CDKN1B [2]): increases in the CDKi CDKN2D and CDKN1B
GSI Sensitivity (human T-ALL cell lines; cell lines BE-13, SUPT-11): Low (low, IC50 6-7 uM)
GSI Sensitivity (human T-ALL cell lines; cell lines CEM, PF-382, HSB-2): Medium (medium, IC50 3-4 uM)
GSI Sensitivity (human T-ALL cell lines; cell lines JURKAT, LOUCY, MOLT -4, MOLT-16, SKW-3): None (none, IC50>10 uM)
GSI Sensitivity (human T-ALL cell lines; cell lines TALL-1, KOPTK-1, DND41, HBP-ALL, KARPAS-45, RPMI 8402): High (high, IC50<1 uM)
IC50 (DND41): 0.25 µM
IC50 (SUPT-11): 7.1 µM
IC50 (TALL-1): 0.11 µM
IC50 (KOPTK-1): 0.15 µM
IC50 (RPMI 8402): 0.86 µM
IC50 (HSB-2): 3.7 µM
IC50 (BE-13): 6.8 µM
IC50 (LOUCY): > 10 µM
IC50 (CEM): 3.2 µM
IC50 (PF-382): 3.2 µM
IC50 (HBP-ALL): 0.38 µM
